This passage reports MIC results from ChEMBL document CHEMBL1133284, “3-Phenyl-5-methyl-2H,5H-furan-2-ones: tuning antifungal activity by varying substituents on the phenyl ring” (2000).

For orientation: MIC means the lowest concentration found to suppress growth. Lower therefore signals greater potency.

Molecules are shown by their SMILES. ≈ marks a conversion by molar mass, not a printed value.

Assay [1] relates to Pichia kudriavzevii. The assay is described as follows: In vitro minimum inhibitory concentration of compound was determined against Candida krusei after 48 hr. Type of assay: functional.
Assay [2] deals with Lichtheimia corymbifera. In words: In vitro minimum inhibitory concentration of compound was determined against Absidia corymbifera after 48 hr. It is filed as functional.
In assay [3] the test system is Aspergillus fumigatus. In words: In vitro minimum inhibitory concentration of compound was determined against Aspergillus fumigatus after 48 hr. It is filed as functional.
Assay [4] relates to Nakaseomyces glabratus. In words: In vitro minimum inhibitory concentration of compound was determined against Candida glabrata after 24 hr r. Type of assay: functional.
The test system of assay [5] is Trichosporon beigelii. The assay is described as follows: In vitro minimum inhibitory concentration of compound was determined against Trichosporon beigelii after 24 hr r. It is filed as functional.
Assay [6] concerns Candida tropicalis. In words: In vitro minimum inhibitory concentration of compound was determined against Candida tropicalis after 24 hr r. Type of assay: functional.
Assay [7] has as its system Aspergillus fumigatus. The assay is described as follows: In vitro minimum inhibitory concentration of compound was determined against Aspergillus fumigatus after 24 hr r. It is filed as functional.
In assay [8] the test system is Trichosporon beigelii. In words: In vitro minimum inhibitory concentration of compound was determined against Trichosporon beigelii after 48 hr. It is filed as functional.
Assay [9] concerns Candida albicans. In words: In vitro minimum inhibitory concentration of compound was determined against Candida albicans after 48 hr. It is filed as functional.
The subject of assay [10] is Candida albicans. In words: In vitro minimum inhibitory concentration of compound was determined against Candida albicans after 24 hr r. It is filed as functional.
Assay [11] has as its system Trichophyton benhamiae. The assay is described as follows: In vitro minimum inhibitory concentration of compound was determined against Trichophyton mentagrophytes after 120 hr. It is filed as functional, Arthroderma benhamiae.
In assay [12] the test system is Nakaseomyces glabratus. The assay is described as follows: In vitro minimum inhibitory concentration of compound was determined against Candida glabrata after 48 hr. Type of assay: functional.
Assay [13] has as its system Candida tropicalis. The assay is described as follows: In vitro minimum inhibitory concentration of compound was determined against Candida tropicalis after 48 hr. Type of assay: functional.
The test system of assay [14] is Pichia kudriavzevii. In words: In vitro minimum inhibitory concentration of compound was determined against Candida krusei after 24 hr r. Type of assay: functional.
Assay [15] relates to Lichtheimia corymbifera. In words: In vitro minimum inhibitory concentration of compound was determined against Absidia corymbifera after 24 hr r. Type of assay: functional.
The subject of assay [16] is Trichophyton benhamiae. The assay is described as follows: In vitro minimum inhibitory concentration of compound was determined against Trichophyton mentagrophytes after 72 hr. It is filed as functional, Arthroderma benhamiae.

Turning to `CC1C=C(c2cccc(F)c2)C(=O)O1` (stereo unspecified), the MIC in the assay with Pichia kudriavzevii [1] is 1000 µM (≈ 192 µg/mL); in the assay on Lichtheimia corymbifera [2], 500 µM (≈ 96.1 µg/mL); with Aspergillus fumigatus [3], 500 µM (≈ 96.1 µg/mL); in the assay on Nakaseomyces glabratus [4], greater than 1000 µM; against Trichosporon beigelii [5] it was 250 µM (≈ 48 µg/mL); with Candida tropicalis [6], 500 µM (≈ 96.1 µg/mL). The minimal inhibitory concentration (MIC) in the assay on Aspergillus fumigatus [7] is 250 µM (≈ 48 µg/mL); in the assay with Trichosporon beigelii [8], 500 µM (≈ 96.1 µg/mL); with Candida albicans [9], 250 µM (≈ 48 µg/mL); in the assay with Candida albicans [10] it was 62.5 µM (≈ 12 µg/mL); against Trichophyton benhamiae [11], 125 µM (≈ 24 µg/mL); with Nakaseomyces glabratus [12], greater than 1000 µM. The MIC against Candida tropicalis [13] stood at 1000 µM (≈ 192 µg/mL); in the assay with Pichia kudriavzevii [14], 500 µM (≈ 96.1 µg/mL); in the assay on Lichtheimia corymbifera [15], 500 µM (≈ 96.1 µg/mL); against Trichophyton benhamiae [16], 125 µM (≈ 24 µg/mL).
For `CC1C=C(c2ccccc2)C(=O)O1` (stereo unspecified), the MIC against Pichia kudriavzevii [1], against Lichtheimia corymbifera [2], against Aspergillus fumigatus [3], against Nakaseomyces glabratus [4], against Trichosporon beigelii [5] and in the assay with Candida tropicalis [6] was greater than 1000 µM in each case. For the same compound, the minimal inhibitory concentration (MIC) in the assay with Aspergillus fumigatus [7] is 1000 µM (≈ 174 µg/mL); against Trichosporon beigelii [8], greater than 1000 µM; against Candida albicans [9], greater than 1000 µM; in the assay on Candida albicans [10], 1000 µM (≈ 174 µg/mL); against Trichophyton benhamiae [11] it was 1000 µM (≈ 174 µg/mL); in the assay with Nakaseomyces glabratus [12], greater than 1000 µM. Besides, the minimum inhibitory concentration (MIC) is greater than 1000 µM in the assay with Candida tropicalis [13], greater than 1000 µM in the assay with Pichia kudriavzevii [14], 1000 µM (≈ 174 µg/mL) against Lichtheimia corymbifera [15] and 500 µM (≈ 87.1 µg/mL) in the assay on Trichophyton benhamiae [16].
For `CC1C=C(c2ccc([N+](=O)[O-])cc2)C(=O)O1` (stereo unspecified), the minimum inhibitory concentration (MIC) in the assay with Pichia kudriavzevii [1] was determined as 500 µM (≈ 110 µg/mL); in the assay on Lichtheimia corymbifera [2], 250 µM (≈ 54.8 µg/mL); against Aspergillus fumigatus [3] it was 1000 µM (≈ 219 µg/mL); against Nakaseomyces glabratus [4], 500 µM (≈ 110 µg/mL); against Trichosporon beigelii [5], 500 µM (≈ 110 µg/mL); against Candida tropicalis [6], 500 µM (≈ 110 µg/mL). Further, the minimal inhibitory concentration (MIC) in the assay on Aspergillus fumigatus [7] was 250 µM (≈ 54.8 µg/mL); against Trichosporon beigelii [8], 1000 µM (≈ 219 µg/mL); against Candida albicans [9] it was 500 µM (≈ 110 µg/mL); against Candida albicans [10], 250 µM (≈ 54.8 µg/mL); in the assay on Trichophyton benhamiae [11], 125 µM (≈ 27.4 µg/mL); in the assay on Nakaseomyces glabratus [12] it was 1000 µM (≈ 219 µg/mL). Further, the MIC against Candida tropicalis [13] was determined as 500 µM (≈ 110 µg/mL); in the assay with Pichia kudriavzevii [14], 500 µM (≈ 110 µg/mL); in the assay on Lichtheimia corymbifera [15] it was 250 µM (≈ 54.8 µg/mL); in the assay on Trichophyton benhamiae [16], 62.5 µM (≈ 13.7 µg/mL).
As to `CC[C@@H]1C=C(c2ccc(C)cc2)C(=O)O1`, the MIC with Pichia kudriavzevii [1] was greater than 500 µM; against Lichtheimia corymbifera [2], 250 µM (≈ 50.6 µg/mL); in the assay on Aspergillus fumigatus [3], 500 µM (≈ 101 µg/mL); in the assay with Nakaseomyces glabratus [4], 500 µM (≈ 101 µg/mL); against Trichosporon beigelii [5] it was 250 µM (≈ 50.6 µg/mL); in the assay on Candida tropicalis [6], 500 µM (≈ 101 µg/mL). Moreover, the MIC in the assay on Aspergillus fumigatus [7] is 250 µM (≈ 50.6 µg/mL); with Trichosporon beigelii [8], 500 µM (≈ 101 µg/mL); in the assay with Candida albicans [9], 500 µM (≈ 101 µg/mL); against Candida albicans [10], 250 µM (≈ 50.6 µg/mL); with Trichophyton benhamiae [11], 250 µM (≈ 50.6 µg/mL); with Nakaseomyces glabratus [12], greater than 500 µM. Further, the MIC against Candida tropicalis [13] was greater than 500 µM; with Pichia kudriavzevii [14] it was 500 µM (≈ 101 µg/mL); with Lichtheimia corymbifera [15], 250 µM (≈ 50.6 µg/mL); against Trichophyton benhamiae [16], 125 µM (≈ 25.3 µg/mL).
For the compound `Cc1ccc(C2=CC(C)OC2=O)cc1` (stereo unspecified), the minimum inhibitory concentration (MIC) against Pichia kudriavzevii [1], against Lichtheimia corymbifera [2], in the assay on Aspergillus fumigatus [3], against Nakaseomyces glabratus [4], against Trichosporon beigelii [5] and in the assay with Candida tropicalis [6] was greater than 1000 µM each time. Moreover, the MIC is 1000 µM (≈ 188 µg/mL) in the assay with Aspergillus fumigatus [7]; greater than 1000 µM against Trichosporon beigelii [8]; greater than 1000 µM with Candida albicans [9]; 1000 µM (≈ 188 µg/mL) with Candida albicans [10]; 500 µM (≈ 94.1 µg/mL) with Trichophyton benhamiae [11]; greater than 1000 µM in the assay on Nakaseomyces glabratus [12]. Besides, the minimum inhibitory concentration (MIC) is greater than 1000 µM with Candida tropicalis [13], greater than 1000 µM against Pichia kudriavzevii [14], 1000 µM (≈ 188 µg/mL) against Lichtheimia corymbifera [15] and 250 µM (≈ 47.1 µg/mL) in the assay on Trichophyton benhamiae [16].
For the compound `CC1C=C(c2cccc(Br)c2)C(=O)O1` (stereo unspecified), the MIC amounted to 500 µM (≈ 127 µg/mL) in the assay with Pichia kudriavzevii [1]; 125 µM (≈ 31.6 µg/mL) with Lichtheimia corymbifera [2]; 250 µM (≈ 63.3 µg/mL) in the assay with Aspergillus fumigatus [3]; 250 µM (≈ 63.3 µg/mL) in the assay with Nakaseomyces glabratus [4]; 62.5 µM (≈ 15.8 µg/mL) in the assay on Trichosporon beigelii [5]; 250 µM (≈ 63.3 µg/mL) with Candida tropicalis [6]. The MIC against Aspergillus fumigatus [7] worked out at 62.5 µM (≈ 15.8 µg/mL); against Trichosporon beigelii [8], 250 µM (≈ 63.3 µg/mL); with Candida albicans [9], 125 µM (≈ 31.6 µg/mL); with Candida albicans [10] it was 31.2 µM (≈ 7.91 µg/mL); in the assay on Trichophyton benhamiae [11], 125 µM (≈ 31.6 µg/mL); against Nakaseomyces glabratus [12], 500 µM (≈ 127 µg/mL). The minimal inhibitory concentration (MIC) came out at 500 µM (≈ 127 µg/mL) in the assay on Candida tropicalis [13], 250 µM (≈ 63.3 µg/mL) in the assay with Pichia kudriavzevii [14], 62.5 µM (≈ 15.8 µg/mL) against Lichtheimia corymbifera [15] and 62.5 µM (≈ 15.8 µg/mL) in the assay with Trichophyton benhamiae [16].
